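Assay format: 96-well plates, 48-hour exposure. TGI marks complete inhibition of growth.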
Tests used:
Assay in all cases: growth of human tumour cells (NCI), 48 h
SK-OV-3 ovarian = test system: SK-OV-3 ovarian
SNB-75 CNS = test system: SNB-75 CNS
DU-145 prostate = test system: DU-145 prostate
OVCAR-8 ovarian = test system: OVCAR-8 ovarian
UACC-257 melanoma = test system: UACC-257 melanoma
CAKI-1 renal = test system: CAKI-1 renal
786-0 renal = test system: 786-0 renal
NCI-H23 lung = test system: NCI-H23 lung
U251 CNS = test system: U251 CNS
BT-549 breast = test system: BT-549 breast
T-47D breast = test system: T-47D breast
COLO 205 colon = test system: COLO 205 colon
SW-620 colon = test system: SW-620 colon
NCI-H460 lung = test system: NCI-H460 lung
HCT-15 colon = test system: HCT-15 colon
SN12C renal = test system: SN12C renal
EKVX NSCLC = test system: EKVX NSCLC
MDA-MB-231 breast = test system: MDA-MB-231 breast
HS 578T breast = test system: HS 578T breast
LOX IMVI melanoma = test system: LOX IMVI melanoma
SK-MEL-2 melanoma = test system: SK-MEL-2 melanoma
A549 NSCLC = test system: A549 NSCLC
SF-268 CNS = test system: SF-268 CNS
SK-MEL-28 melanoma = test system: SK-MEL-28 melanoma
OVCAR-5 ovarian = test system: OVCAR-5 ovarian
K-562 leukemia = test system: K-562 leukemia
IGROV1 ovarian = test system: IGROV1 ovarian
UACC-62 melanoma = test system: UACC-62 melanoma
OVCAR-4 ovarian = test system: OVCAR-4 ovarian
HCT-116 colon = test system: HCT-116 colon
SF-295 CNS = test system: SF-295 CNS
RXF 393 renal = test system: RXF 393 renal
UO-31 renal = test system: UO-31 renal
NCI-H522 lung = test system: NCI-H522 lung
MDA-N = test system: MDA-N
MCF7 breast = test system: MCF7 breast
SNB-19 CNS = test system: SNB-19 CNS
A498 renal = test system: A498 renal
HT29 colon = test system: HT29 colon
SF-539 CNS = test system: SF-539 CNS
MDA-MB-435 = test system: MDA-MB-435
TK-10 renal = test system: TK-10 renal
HL-60(TB) leukemia = test system: HL-60(TB) leukemia
MALME-3M melanoma = test system: MALME-3M melanoma
NCI/ADR-RES ovarian = test system: NCI/ADR-RES ovarian
ACHN renal = test system: ACHN renal
OVCAR-3 ovarian = test system: OVCAR-3 ovarian
CCRF-CEM leukemia = test system: CCRF-CEM leukemia
KM12 colon = test system: KM12 colon
M14 melanoma = test system: M14 melanoma
SK-MEL-5 melanoma = test system: SK-MEL-5 melanoma
HOP-62 NSCLC = test system: HOP-62 NSCLC
PC-3 prostate = test system: PC-3 prostate
HOP-92 NSCLC = test system: HOP-92 NSCLC
MOLT-4 leukemia = test system: MOLT-4 leukemia
SR leukemia = test system: SR leukemia

What does the source list for COC(=O)C1=C(C(=O)OC)C2(/N=C(\Nc3ccccc3)c3ccccc3)N(c3ccc(OC)cc3)CC(c3ccccc3)N2O1 (stereo unspecified)?
TGI (SK-OV-3 ovarian): > 100 µM; TGI (SNB-75 CNS): 96.7 µM; TGI (DU-145 prostate): > 100 µM; TGI (OVCAR-8 ovarian): > 100 µM; TGI (UACC-257 melanoma): > 100 µM; TGI (CAKI-1 renal): > 100 µM; TGI (786-0 renal): > 100 µM; TGI (NCI-H23 lung): > 100 µM; TGI (U251 CNS): > 100 µM; TGI (BT-549 breast): > 100 µM; TGI (T-47D breast): > 100 µM; TGI (COLO 205 colon): > 100 µM; TGI (SW-620 colon): > 100 µM; TGI (NCI-H460 lung): > 100 µM; TGI (HCT-15 colon): > 100 µM; TGI (SN12C renal): > 100 µM; TGI (EKVX NSCLC): > 100 µM; TGI (MDA-MB-231 breast): > 100 µM; TGI (HS 578T breast): > 100 µM; TGI (LOX IMVI melanoma): > 100 µM; TGI (SK-MEL-2 melanoma): > 100 µM; TGI (A549 NSCLC): > 100 µM; TGI (SF-268 CNS): > 100 µM; TGI (SK-MEL-28 melanoma): > 100 µM; TGI (OVCAR-5 ovarian): > 100 µM; TGI (K-562 leukemia): > 100 µM; TGI (IGROV1 ovarian): > 100 µM; TGI (UACC-62 melanoma): > 100 µM; TGI (OVCAR-4 ovarian): > 100 µM; TGI (HCT-116 colon): > 100 µM; TGI (SF-295 CNS): > 100 µM; TGI (RXF 393 renal): > 100 µM; TGI (UO-31 renal): > 100 µM; TGI (NCI-H522 lung): > 100 µM; TGI (MDA-N): > 100 µM; TGI (MCF7 breast): > 100 µM; TGI (SNB-19 CNS): > 100 µM; TGI (A498 renal): > 100 µM; TGI (HT29 colon): > 100 µM; TGI (SF-539 CNS): > 100 µM; TGI (MDA-MB-435): > 100 µM; TGI (TK-10 renal): > 100 µM; TGI (HL-60(TB) leukemia): > 100 µM; TGI (MALME-3M melanoma): > 100 µM; TGI (NCI/ADR-RES ovarian): > 100 µM; TGI (ACHN renal): > 100 µM; TGI (OVCAR-3 ovarian): > 100 µM; TGI (CCRF-CEM leukemia): > 100 µM; TGI (KM12 colon): > 100 µM; TGI (M14 melanoma): > 100 µM; TGI (SK-MEL-5 melanoma): > 100 µM; TGI (HOP-62 NSCLC): > 100 µM; TGI (PC-3 prostate): > 100 µM; TGI (HOP-92 NSCLC): > 100 µM; TGI (MOLT-4 leukemia): > 100 µM; TGI (SR leukemia): > 100 µM

Source: PubChem BioAssay (NCI)
